Measured values published in US10550080B2 (BRISTOL-MYERS SQUIBB COMPANY, priority 2016, dated 2020).

Experiments:
NaV1.7 = NaV1.7 (Homo sapiens (Human), UniProt Q15858); assay: Automated electrophysiology, IonWorks Barracuda population patch clamp, NaV1.7 current (inactivated-state protocol); format: cell-based; settings: HEK 293 cells expressing NaV1.7; 600 sec compound incubation; read-out: NaV1.7 Barra IC50
Experimental: (§1) Automated Electrophysiology: Ion Works Barracuda population patch clamp (PPC). PPC measurements were performed using an IonWorks Barracuda instrument (Molecular Devices Corporation, Union City, Calif.) using either PatchPlate™ PPC substrates (Molecular Devices Corporation) with 64 apertures per well. The ability to average currents from 64 recordings from each well greatly improves data consistency and recording success rates in the measurement of NaV1.7 mediated ionic currents. Calculated leak current was digitally subtracted from the total cell NaV1.7 current for each sample point acquired.
(§2) NaV1.7 currents were elicited by a voltage clamp protocol designed to bias the NaV1.7 channels to their inactivated state as follows. From holding potential of −60 mV cells were briefly hyperpolarized to −100 mV for 1.25 sec, then stepped to −20 mV for 20 sec to inactivate the channels. This was followed by a relatively brief hyperpolarization to −100 mv for 300 ms, then a 20 msec test pulse to −20 mV to elicit the NaV1.7 current used to measure the pharmacology of all test compounds. Compounds were incubated for 600 sec between the pre- and post-compound reads. The external recording solution used was (in mM) 137 NaCl, 4 KCl, 1 MgCl2, 1.8 CaCl2, 10 Hepes, 10 glucose, pH to 7.4 with NaOH, and the internal solution used was (in mM) 100 K-gluconate, 40 KCl, 3.2 zMgCl2, 5 EGTA, 10 HEPES pH to 7.2 with KOH. The same solutions were used to record NaV1.5 currents, with the following voltage clamp protocol. NaV1.5 currents were elicited by a voltage clamp protocol designed to bias the NaV1.5 channels to their inactivated state as follows. From holding potential of −40 mV cells were briefly hyperpolarized to −100 mV for 300 ms, then stepped to −10 mV for 20 sec to inactivate the channels. This was followed by a relatively brief hyperpolarization to −100 mv for 30 ms, then a 20 msec test pulse to −10 mV to elicit the NaV1.5 current used to measure the pharmacology of all test compounds.
(§3) HEK 293 cells expressing NaV1.7 and NaV1.5 channels, were used (Essen Biosciences, Ann Arbor, Mich.). Cells were cultured in T-175 flasks and passaged every 2 to 3 days at 1:3 to 1:6 seeding density dilutions. Cells were grown to 70% to 90% confluence in a flask and removed from the incubator (37° C., 5% CO2) 1 to 3 days after plating. Growth medium was aspirated from the culture flasks. Cells were gently rinsed with 10 ml of PBS (Catalog number: 14190144, Gibco) to remove residual media. Next a total of 2 mL TrypLE (Gibco) solution was added, and the flasks containing cells were sat for 3 min at RT, after which, the cells became visibly rounded and were easily dislodged from the bottom of the flask with a few brief taps on a solid surface. A total of 8 mL of media was added to the flask to inactivate the TrypLE, and the mixture was centrifuged at 910 rpm for 4 min. The cell supernatant was decanted, and the cell pellets were resuspended in 5-6 mL of external solution followed by gentle triturations using a 10 ml pipette, and transferred to a 15 ml conical tube and immediately brought to the IW Barracuda instrument.
(§4) Peak membrane currents were analyzed with IW Barracuda software and exported to Excel for further analysis. Concentration response curve fitting was performed with BMS in-house software. IC50 values were obtained by fits of the Hill equation to the average percent inhibition data plotted versus compound concentration. […] Results are reported in Table 1 (NaV1.7 Barra IC50 in nM and NaV1.5 Barra IC50 in nM).

hNaV1.7 = hNaV1.7 (Homo sapiens (Human), UniProt Q15858); assay: Ligand Binding Assay (LBA), radioligand displacement on hNaV1.7 HEK293 cell membranes; settings: 0.5 nM [3H] radioligand, 24 hours at room temperature; read-out: NaV1.7 LBA IC50
Chain of hNaV1.7 (Q15858 whole entry): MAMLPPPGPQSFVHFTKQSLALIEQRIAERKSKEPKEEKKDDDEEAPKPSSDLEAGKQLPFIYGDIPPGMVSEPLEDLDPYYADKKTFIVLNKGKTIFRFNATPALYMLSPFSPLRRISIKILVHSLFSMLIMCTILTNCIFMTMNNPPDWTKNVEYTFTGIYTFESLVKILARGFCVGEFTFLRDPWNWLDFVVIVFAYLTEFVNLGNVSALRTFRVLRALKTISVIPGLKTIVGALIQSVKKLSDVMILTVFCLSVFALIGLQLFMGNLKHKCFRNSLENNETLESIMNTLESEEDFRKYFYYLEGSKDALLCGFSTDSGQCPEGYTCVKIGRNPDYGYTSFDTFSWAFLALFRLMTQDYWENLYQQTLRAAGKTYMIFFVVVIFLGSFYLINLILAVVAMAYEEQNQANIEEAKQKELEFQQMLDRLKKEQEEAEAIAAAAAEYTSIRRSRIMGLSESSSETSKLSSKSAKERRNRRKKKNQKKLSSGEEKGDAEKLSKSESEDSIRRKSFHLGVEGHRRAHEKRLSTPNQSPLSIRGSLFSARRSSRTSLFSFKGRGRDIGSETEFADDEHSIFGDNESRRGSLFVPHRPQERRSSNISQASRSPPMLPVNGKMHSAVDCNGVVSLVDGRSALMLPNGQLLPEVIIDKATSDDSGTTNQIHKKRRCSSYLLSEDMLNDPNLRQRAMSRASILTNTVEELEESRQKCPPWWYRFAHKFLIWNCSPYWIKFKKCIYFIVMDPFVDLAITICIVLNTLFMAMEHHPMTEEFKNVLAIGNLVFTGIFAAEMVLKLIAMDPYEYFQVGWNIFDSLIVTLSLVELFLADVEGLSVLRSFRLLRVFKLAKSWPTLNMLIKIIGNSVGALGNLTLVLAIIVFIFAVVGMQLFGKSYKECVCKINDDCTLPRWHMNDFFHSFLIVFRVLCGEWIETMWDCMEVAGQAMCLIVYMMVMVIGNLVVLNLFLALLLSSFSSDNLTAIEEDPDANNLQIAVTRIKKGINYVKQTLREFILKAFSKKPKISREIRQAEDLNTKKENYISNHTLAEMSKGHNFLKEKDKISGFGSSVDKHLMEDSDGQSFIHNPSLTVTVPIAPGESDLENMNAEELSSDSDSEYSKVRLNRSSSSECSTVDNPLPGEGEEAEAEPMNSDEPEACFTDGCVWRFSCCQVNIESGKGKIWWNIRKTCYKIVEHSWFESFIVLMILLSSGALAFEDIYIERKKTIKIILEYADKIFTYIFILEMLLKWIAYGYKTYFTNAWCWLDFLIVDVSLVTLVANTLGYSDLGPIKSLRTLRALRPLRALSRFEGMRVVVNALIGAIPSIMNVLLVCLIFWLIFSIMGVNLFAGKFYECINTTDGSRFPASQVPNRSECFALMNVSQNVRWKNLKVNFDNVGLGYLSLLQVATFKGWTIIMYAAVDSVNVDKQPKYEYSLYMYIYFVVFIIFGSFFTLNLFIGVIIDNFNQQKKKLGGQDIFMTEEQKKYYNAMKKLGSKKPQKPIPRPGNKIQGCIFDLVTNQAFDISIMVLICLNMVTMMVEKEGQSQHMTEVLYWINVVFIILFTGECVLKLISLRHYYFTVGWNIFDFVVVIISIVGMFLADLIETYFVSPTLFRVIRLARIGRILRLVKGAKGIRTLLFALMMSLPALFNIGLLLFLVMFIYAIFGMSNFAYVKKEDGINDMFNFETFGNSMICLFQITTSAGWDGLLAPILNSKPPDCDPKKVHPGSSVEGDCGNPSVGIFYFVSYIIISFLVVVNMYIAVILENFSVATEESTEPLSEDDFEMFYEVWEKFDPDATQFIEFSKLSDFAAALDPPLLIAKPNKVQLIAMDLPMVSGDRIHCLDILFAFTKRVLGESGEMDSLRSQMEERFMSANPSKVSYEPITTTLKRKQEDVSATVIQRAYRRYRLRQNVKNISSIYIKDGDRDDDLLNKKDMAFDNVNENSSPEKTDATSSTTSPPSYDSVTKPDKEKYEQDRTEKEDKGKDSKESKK
Experimental: Ligand Binding Assay (LBA): hNaV1.7 binding affinities were determined with a filtration binding assay using purified membranes from HEK293 cells stably expressing hNaV1.7. HEK293 cells from a 10-stack cell culture flask (approximately 10^10 cells) were dissociated, frozen, and stored at −80° C. To prepare membranes, the frozen cell pellet was thawed and suspended in 6 ml hypotonic lysis buffer (50 mM HEPES, 0.1% mammalian protease inhibitor cocktail). 1 ml of resuspended cells was added to an additional 6 ml of lysis buffer and homogenized with 30 strokes of a tight pestle in a glass homogenizer. Homogenate was centrifuged at 1000×g for 10 minutes at 4° C. and the resulting supernatant was further centrifuged at 38,500×g for 60 minutes at 4° C. The resulting pellet was resuspended in binding buffer (50 mM HEPES, 130 mM NaCl, 5.4 mM KCl, 0.8 mM MgCl2, 5 mM glucose, pH 7.4) and needle homogenized with a 25 gauge needle. Protein concentration was determined with a BCA protein assay. Purified membranes were aliquoted, flash frozen in an ethyl alcohol dry ice bath, and stored at −80° C. To measure displacement of a radiolabeled ligand, 50 μg of purified hNaV1.7 HEK cell membranes were incubated with test compounds (eight concentrations, in duplicate) and 0.5 nM [3H] labeled radioligand in a 96 well plate for 24 hours at room temperature on a shaker. The total binding reaction volume was 250 μl, consisting of 200 μl purified hNaV1.7 HEK cell membranes, 25 μl test compound, and 25 μl radioligand. Non-specific binding was defined by 20 μM of a reference hNaV1.7 inhibitor. Binding reactions were terminated by filtration through GF/B filters presoaked in 0.5% polyethyleneamine. Filters were washed 5 times with 2 ml each of 4′C wash buffer (50 mM Tris-HCl, pH 7.4 at 4° C.). Bound radioactivity captured on the filters was counted on a liquid scintillation counter. Specific binding, expressed as % inhibition, was fit with Graphpad Prism software to determine binding IC50 values. Results are reported in Table 1 (NaV1.7 LBA IC50 in nM).

NaV1.5 = NaV1.5 (Homo sapiens (Human), UniProt Q14524); assay: Automated electrophysiology, IonWorks Barracuda population patch clamp, NaV1.5 current (inactivated-state protocol); format: cell-based; settings: HEK 293 cells expressing NaV1.5; read-out: NaV1.5 Barra IC50
Chain of NaV1.5 (Q14524 whole entry): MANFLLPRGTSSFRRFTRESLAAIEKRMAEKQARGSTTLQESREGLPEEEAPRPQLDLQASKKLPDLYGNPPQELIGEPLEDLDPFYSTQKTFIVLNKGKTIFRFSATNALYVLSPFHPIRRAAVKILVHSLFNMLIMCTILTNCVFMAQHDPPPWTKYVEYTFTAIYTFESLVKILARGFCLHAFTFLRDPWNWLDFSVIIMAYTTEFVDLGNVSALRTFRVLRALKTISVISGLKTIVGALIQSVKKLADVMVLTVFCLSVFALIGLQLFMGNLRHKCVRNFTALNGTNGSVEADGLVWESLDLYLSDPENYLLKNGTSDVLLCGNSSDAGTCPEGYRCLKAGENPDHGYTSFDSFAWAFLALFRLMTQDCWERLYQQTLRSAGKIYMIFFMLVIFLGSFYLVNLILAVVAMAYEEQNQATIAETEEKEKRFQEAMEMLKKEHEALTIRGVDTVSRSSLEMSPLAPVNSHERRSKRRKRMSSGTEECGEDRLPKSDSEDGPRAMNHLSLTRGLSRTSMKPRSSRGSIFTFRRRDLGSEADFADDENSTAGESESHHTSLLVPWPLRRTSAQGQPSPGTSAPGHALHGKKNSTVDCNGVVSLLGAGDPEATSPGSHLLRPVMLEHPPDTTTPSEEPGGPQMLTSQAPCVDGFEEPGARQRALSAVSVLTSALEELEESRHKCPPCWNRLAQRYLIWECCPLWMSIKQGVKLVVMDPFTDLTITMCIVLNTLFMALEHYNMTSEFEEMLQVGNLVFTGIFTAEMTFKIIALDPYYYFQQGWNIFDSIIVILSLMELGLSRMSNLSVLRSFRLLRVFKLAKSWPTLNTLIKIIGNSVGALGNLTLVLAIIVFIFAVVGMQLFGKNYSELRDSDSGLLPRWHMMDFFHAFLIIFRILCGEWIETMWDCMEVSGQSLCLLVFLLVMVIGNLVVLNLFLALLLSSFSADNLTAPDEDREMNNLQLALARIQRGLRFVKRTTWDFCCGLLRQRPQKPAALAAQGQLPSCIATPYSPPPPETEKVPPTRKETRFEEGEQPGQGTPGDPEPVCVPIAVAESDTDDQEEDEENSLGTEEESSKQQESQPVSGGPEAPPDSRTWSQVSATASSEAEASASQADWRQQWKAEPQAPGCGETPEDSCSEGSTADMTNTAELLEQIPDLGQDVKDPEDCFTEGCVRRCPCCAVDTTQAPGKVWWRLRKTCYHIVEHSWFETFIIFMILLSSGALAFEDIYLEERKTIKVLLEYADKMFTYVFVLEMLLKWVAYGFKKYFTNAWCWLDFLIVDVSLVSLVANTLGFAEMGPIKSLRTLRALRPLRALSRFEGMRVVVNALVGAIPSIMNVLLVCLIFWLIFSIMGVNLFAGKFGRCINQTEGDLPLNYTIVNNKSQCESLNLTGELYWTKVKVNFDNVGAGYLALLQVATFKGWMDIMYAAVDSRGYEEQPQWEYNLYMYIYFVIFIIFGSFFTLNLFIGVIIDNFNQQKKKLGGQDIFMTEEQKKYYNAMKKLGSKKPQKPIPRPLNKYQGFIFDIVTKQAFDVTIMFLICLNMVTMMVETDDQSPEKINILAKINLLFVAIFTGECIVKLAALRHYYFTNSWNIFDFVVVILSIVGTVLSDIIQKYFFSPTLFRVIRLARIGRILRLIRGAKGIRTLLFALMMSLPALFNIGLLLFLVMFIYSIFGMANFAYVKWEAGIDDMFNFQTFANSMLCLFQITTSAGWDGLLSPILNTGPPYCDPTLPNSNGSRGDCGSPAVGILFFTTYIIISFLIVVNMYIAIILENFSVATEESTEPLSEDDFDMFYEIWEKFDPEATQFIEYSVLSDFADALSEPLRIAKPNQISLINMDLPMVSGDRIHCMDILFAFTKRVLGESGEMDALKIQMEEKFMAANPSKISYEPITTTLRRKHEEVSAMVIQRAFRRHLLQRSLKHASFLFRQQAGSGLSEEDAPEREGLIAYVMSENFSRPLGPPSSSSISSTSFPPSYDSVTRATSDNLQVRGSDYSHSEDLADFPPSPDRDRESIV
Experimental: as §1, §2, §3, §4

Chain of NaV1.7 (Q15858 whole entry): as the sequence (Q15858 whole entry) above

| Compound | IC50 (NaV1.7) [nM] | IC50 (hNaV1.7) [nM] | IC50 (NaV1.5) [nM] |
| --- | --- | --- | --- |
| Cn1cc(-c2ccc(C(F)(F)F)cc2)c2ccc(C(=O)NS(C)(=O)=O)cc21 [Example 1, 1-Methyl-N-(methylsulfonyl)-3-(4-(trifluoromethyl)phenyl)-1H-indole-6-carboxamide] | 85 | 422 | 19600 |
| CC(C)COc1ncc(-c2cn(C)c3cc(C(=O)NS(C)(=O)=O)ccc23)cc1Cl [Example 2, 3-(5-Chloro-6-isobutoxypyridin-3-yl)-1-methyl-N-(methylsulfonyl)-1H-indole-6-carboxamide] | 90 | 91 | 18300 |
| Cn1cc(-c2cccc(F)c2F)c2ccc(C(=O)NS(C)(=O)=O)cc21 [Example 3, 3-(2,3-Difluorophenyl)-1-methyl-N-(methylsulfonyl)-1H-indole-6-carboxamide] | 2860 | 4940 | > 30000 |
| Cn1cc(-c2ccc(OC(F)(F)F)cc2)c2ccc(C(=O)NS(C)(=O)=O)cc21 [Example 4, 1-Methyl-N-(methylsulfonyl)-3-(4-(trifluoromethoxy)phenyl)-1H-indole-6-carboxamide] | 80 | 243 | 18300 |
| Cn1cc(-c2ccccc2)c2ccc(C(=O)NS(C)(=O)=O)cc21 [Example 5, 1-Methyl-N-(methylsulfonyl)-3-phenyl-1H-indole-6-carboxamide] | 743 | 7270 | > 30000 |
| COc1ncccc1-c1cn(C)c2cc(C(=O)NS(C)(=O)=O)ccc12 [Example 6, 3-(2-Methoxypyridin-3-yl)-1-methyl-N-(methylsulfonyl)-1H-indole-6-carboxamide] | > 30000 | > 30000 | > 30000 |
| Cn1cc(-c2cncc(F)c2)c2ccc(C(=O)NS(C)(=O)=O)cc21 [Example 7, 3-(5-Fluoropyridin-3-yl)-1-methyl-N-(methylsulfonyl)-1H-indole-6-carboxamide] | > 30000 | – | > 30000 |
| Cn1cc(-c2cccnc2)c2ccc(C(=O)NS(C)(=O)=O)cc21 [Example 8, 1-Methyl-N-(methylsulfonyl)-3-(pyridin-3-yl)-1H-indole-6-carboxamide] | > 30000 | – | – |
| CCOc1ncc(-c2cn(C)c3cc(C(=O)NS(C)(=O)=O)ccc23)cn1 [Example 9, 3-(2-Ethoxypyrimidin-5-yl)-1-methyl-N-(methylsulfonyl)-1H-indole-6-carboxamide] | > 30000 | > 20000 | > 30000 |
| Cc1ccc(-c2cn(C)c3cc(C(=O)NS(C)(=O)=O)ccc23)cc1 [Example 10, 1-Methyl-N-(methylsulfonyl)-3-(p-tolyl)-1H-indole-6-carboxamide] | 739 | 1030 | > 30000 |
| Cn1cc(-c2ccc(C(F)(F)F)cc2Cl)c2ccc(C(=O)NS(C)(=O)=O)cc21 [Example 11, 3-(2-Chloro-4-(trifluoromethyl)phenyl)-1-methyl-N-(methylsulfonyl)-1H-indole-6-carboxamide] | 604 | 750 | 8640 |
| CC(C)Cc1ccc(-c2cn(C)c3cc(C(=O)NS(C)(=O)=O)ccc23)cc1 [Example 12, 3-(4-Isobutylphenyl)-1-methyl-N-(methylsulfonyl)-1H-indole-6-carboxamide] | 363 | 317 | > 30000 |
| Cn1cc(-c2cccc(C(F)(F)F)c2)c2ccc(C(=O)NS(C)(=O)=O)cc21 [Example 13, 1-Methyl-N-(methylsulfonyl)-3-(3-(trifluoromethyl)phenyl)-1H-indole-6-carboxamide] | 1420 | 290 | > 30000 |
| CCc1ccc(-c2cn(C)c3cc(C(=O)NS(C)(=O)=O)ccc23)cc1 [Example 14, 3-(4-Ethylphenyl)-1-methyl-N-(methylsulfonyl)-1H-indole-6-carboxamide] | 173 | 554 | > 30000 |
| Cc1cccc(-c2cn(C)c3cc(C(=O)NS(C)(=O)=O)ccc23)c1 [Example 15, 1-Methyl-N-(methylsulfonyl)-3-(m-tolyl)-1H-indole-6-carboxamide] | 375 | 943 | > 30000 |
| CC(C)COc1ccc(-c2cn(C)c3cc(C(=O)NS(C)(=O)=O)ccc23)cc1 [Example 22, 3-(4-Isobutoxyphenyl)-1-methyl-N-(methylsulfonyl)-1H-indole-6-carboxamide] | 525 | 275 | – |
| CC(C)COc1ncc(-c2cn(C)c3cc(C(=O)NS(=O)(=O)N(C)C)ccc23)cc1Cl [Example 25, 3-(5-Chloro-6-isobutoxypyridin-3-yl)-N—(N,N-dimethylsulfamoyl)-1-methyl-1H-indole-6-carboxamide] | 1280 | – | 6330 |
| CC(C)COc1ncc(-c2cn(C)c3cc(C(=O)NS(=O)(=O)N4CCCCC4)ccc23)cc1Cl [Example 26, 3-(5-Chloro-6-isobutoxypyridin-3-yl)-1-methyl-N-(piperidin-1-ylsulfonyl)-1H-indole-6-carboxamide] | 4180 | – | 8770 |
| CC(C)COc1ncc(-c2cn(CC(C)C)c3cc(C(=O)NS(C)(=O)=O)ccc23)cc1Cl [Example 27, 3-(5-Chloro-6-isobutoxypyridin-3-yl)-1-isobutyl-N-(methylsulfonyl)-1H-indole-6-carboxamide] | 3330 | – | 23700 |
| CC(C)COc1ncc(-c2cn(CC(C)C)c3cc(C(=O)NS(=O)(=O)C4CC4)ccc23)cc1Cl [Example 28, 3-(5-Chloro-6-isobutoxypyridin-3-yl)-N-(cyclopropylsulfonyl)-1-isobutyl-1H-indole-6-carboxamide] | 8050 | – | 11300 |
| CN(C)S(=O)(=O)NC(=O)c1ccc2c(-c3ccc(C(F)F)cc3)cn(C)c2c1 [Example 32, 3-(4-(Difluoromethyl)phenyl)-N—(N,N-dimethylsulfamoyl)-1-methyl-1H-indole-6-carboxamide] | 1910 | – | > 30000 |
| CN(C)S(=O)(=O)NC(=O)c1ccc2c(-c3ccc(C(F)(F)F)cc3)cn(C)c2c1 [Example 33] | 1920 | – | 24500 |
